The results in this text go back to patent US20250059205A1, “Heterocyclic Compounds and Methods of Use” (AMGEN INC., priority 2021, published 2025).

Experiment [1] addresses His-tagged KRAS G12D protein (Homo sapiens, UniProt P01116, G12D). The experiment can be described thus: KRAS G12D TR-FRET Assay. Format: binding. Here is the method:
Compounds of interest were prepared in a dose-response titration in DMSO, and 80 nL were added via Labcyte Echo to each well of a 384-well plate (Perkin Elmer 6008280). […] The plate was incubated for 30 minutes at room temperature. Biotinylated KRPep-2d substrate (Amgen) was diluted to 20 nM in Assay Buffer and 2 μL was added to all wells and incubated for 1 h at room temperature. Detection Reagent (0.4 nM LANCE Eu-W1024 Anti-6xHis (Perkin Elmer AD0401), 5 nM streptavidin-d2 (Cisbio 610SADLA)) was prepared in Assay Buffer, then 4 μL was added to the plate and incubated for 1 h at room temperature. Plates were read using PerkinElmer EnVision (ex: 320 nm, em1: 665 nm, em2: 615 nm) and em1/em2 data was used to generate curve fits using a 4-parameter logistic model to calculate IC50 values.
On the technique in general: TR-FRET usually uses a lanthanide donor and a delayed reading to cut background.

The target of experiment [2] is GDP-bound KRAS protein (aa 1-169), containing both G12D and C118A amino acid substitutions (Homo sapiens, UniProt P01116, C118A/G12D). As to the kind of experiment: KRAS G12D Coupled Nucleotide Exchange Assay. Format: biochemical. As to conditions: 2 h compound pre-incubation. As to the method: Following compound pre-incubation, purified SOS protein (aa 564-1049) and GTP (Roche 10106399001) were added to the assay wells and incubated for an additional 30 min. […] The assay plates were then read on a PerkinElmer EnVision Multilabel Reader, using AlphaScreen® technology, and data were analyzed using a 4-parameter logistic model to calculate IC50 values.

In experiment [3] the test system is Phosphorylation of ERK1/2 in AsPC-1 cells. As to the kind of experiment: Phospho-ERK1/2 MSD Assay (AsPC-1 cells). Format: cell-based. As to conditions: Homo sapiens, read-out: p-ERK (AsPC-1 cells) IC50. As to the method: AsPC-1 (ATCC® CRL-1682™) cells were cultured in RPMI 1640 Medium (ThermoFisher Scientific 11875093) containing 10% fetal bovine serum (ThermoFisher Scientific 16000044) and 1× penicillin-streptomycin-glutamine (ThermoFisher Scientific 10378016). Sixteen hours prior to compound treatment, AsPC-1 cells were seeded in 96-well cell culture plates at a density of 25,000 cells/well and incubated at 37° C., 5% CO2. A compound dose-response titration was diluted in growth media, added to appropriate wells of a cell culture plate, and then incubated at 37° C., 5% CO2 for 2 hours. Following compound treatment, cells were washed with ice-cold Dulbecco's phosphate-buffered saline, no Ca^2+ or Mg^2+ (ThermoFisher Scientific 14190144), and then lysed in RIPA buffer (50 mM Tris-HCl pH 7.5, 1% Igepal, 0.5% sodium deoxycholate, 150 mM NaCl, and 0.5% sodium dodecyl sulfate) containing protease inhibitors (Roche 4693132001) and phosphatase inhibitors (Roche 4906837001). Phosphorylation of ERK1/2 in compound-treated lysates was assayed using Phospho-ERK1/2 Whole Cell Lysate kits (Meso Scale Discovery K151DWD) according to the manufacturer's protocol. Assay plates were read on a Meso Scale Discovery Sector Imager 6000, and data were analyzed using a 4-parameter logistic model to calculate IC50 values.

The structures appear in SMILES notation. Read-outs that look alike come from different tables or passages of the source.

His-tagged KRAS G12D protein, sequence (P01116 1-188 isoform P01116-2 G12D): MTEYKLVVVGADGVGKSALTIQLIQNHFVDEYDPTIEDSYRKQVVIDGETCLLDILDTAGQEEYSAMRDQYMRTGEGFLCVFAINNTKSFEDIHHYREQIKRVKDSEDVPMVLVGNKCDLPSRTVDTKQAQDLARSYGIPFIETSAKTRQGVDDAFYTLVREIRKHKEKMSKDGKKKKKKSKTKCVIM
GDP-bound KRAS protein (aa 1-169), containing both G12D and C118A amino acid substitutions, sequence (P01116 1-169 isoform P01116-2 G12D/C118A): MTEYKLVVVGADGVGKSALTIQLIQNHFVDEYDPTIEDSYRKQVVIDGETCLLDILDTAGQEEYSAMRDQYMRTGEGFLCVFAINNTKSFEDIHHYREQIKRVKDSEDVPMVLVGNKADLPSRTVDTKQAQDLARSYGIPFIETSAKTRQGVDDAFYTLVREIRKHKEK

As a reminder, the IC50 is the concentration needed to halve the response being measured. In experiment [1], `Oc1cc(-c2ccc3c(N4[C@@H]5CC[C@H]4CNC5)nc(OC[C@@]45CCCN4C[C@H](F)C5)nc3c2F)c2cnccc2c1` [Example 31, 8-(4-((1R,5S)-3,8-diazabicyclo[3.2. 1]octan-8-yl)-8-fluoro-2-(((2R,7aS)-2-fluorotetrahydro-1H-pyrrolizin-7a(5H)-yl)methoxy)quinazolin-7-yl)isoquinolin-6-ol] gave a 50% inhibitory concentration (IC50) of 546 nM. In addition, the “Avg 2 h Coupled Exchange IC50” value in experiment [2] is 259 nM.

`CCc1c(F)ccc2cc(O)cc(-c3ccc4c(N5C[C@H]6CC[C@@H](C5)N6)cc(OC[C@@]56CCCN5C[C@H](F)C6)nc4c3)c12` [Example 210, 4-(4-((1R,5S)-3,8-Diazabicyclo[3.2.1]octan-3-yl)-2-(((2R,7aS)-2-fluorotetrahydro-1H-pyrrolizin-7a(5H)-yl)methoxy)quinolin-7-yl)-5-ethyl-6-fluoronaphthalen-2-ol] registered an IC50 in experiment [1] of 44 nM. In addition, the “Avg 2 h Coupled Exchange IC50” value in experiment [2] was 69 nM.

The compound `C=Cc1c(F)ccc2cccc(-c3ccc4c(N5[C@@H]6CC[C@H]5CNC6)nc(OC[C@@]56CCCN5C[C@H](F)C6)nc4c3)c12` [Example 104, 4-((1R,5S)-3,8-diazabicyclo[3.2.1]octan-8-yl)-7-(7-fluoro-8-vinylnaphthalen-1-yl)-2-(((2R,7aS)-2-fluorotetrahydro-1H-pyrrolizin-7a(5H)-yl)methoxy)quinazoline] yielded an IC50 in experiment [1] of 544 nM. In experiment [2], the “Avg 2 h Coupled Exchange IC50” value was 2300 nM.

Consider `CN1C[C@H](F)C[C@H]1COc1nc2c(F)c(-c3cc(O)cc4ccccc34)c(Cl)cc2c(N2C[C@H]3CC[C@@H](C2)N3)c1C#N` [Example 63, 4-((1R,5S)-3,8-diazabicyclo[3.2. 1]octan-3-yl)-6-chloro-8-fluoro-2-(((2S,4R)-4-fluoro-1-methylpyrrolidin-2-yl)methoxy)-7-(3-hydroxynaphthalen-1-yl)quinoline-3-carbonitrile], for which the IC50 in experiment [1] is above 25000 nM. Besides, in experiment [2], the “Avg 2 h Coupled Exchange IC50” value is 555 nM.

Consider `Oc1cc(-c2ccc3c(C4=CC5CCC(C4)N5)nc(OC[C@@]45CCCN4C[C@H](F)C5)nc3c2)c2ccccc2c1` (some centres unmarked) [Example 108], for which the IC50 was determined as 11700 nM in experiment [1] and 420 nM in experiment [3] (ASPC1, 2 h, 2 hours treatment). Also, the “Avg 2 h Coupled Exchange IC50” value in experiment [2] turned out to be 671 nM.

Take `Oc1cc(-c2c(F)cc3c(N4[C@@H]5CC[C@H]4CNC5)nc(OC[C@@]45CCCN4C[C@H](F)C5)nc3c2O)c2ccccc2c1` [Example 102, 4-((1R,5S)-3,8-Diazabicyclo[3.2.1]octan-8-yl)-6-fluoro-2-(((2R,7aS)-2-fluorotetrahydro-1H-pyrrolizin-7a(5H)-yl)methoxy)-7-(3-hydroxynaphthalen-1-yl)quinazolin-8-ol]: the concentration for half-maximal inhibition (IC50) in experiment [1] is 144 nM; in experiment [3] (ASPC1, 2 hours treatment) it was 10100 nM. In addition, the “Avg 2 h Coupled Exchange IC50” value in experiment [2] turned out to be 55 nM.

On to `CCc1c(F)ccc2cc(O)cc(-c3c(O)cc4c(N5CC6CCC(C5)N6)nc(OCC56CCCN5C[C@H](F)C6)nc4c3F)c12` (atropisomer, axis not shown; (M)) [Example 234, (M)-4-((1R,5S)-3,8-Diazabicyclo[3.2.1]octan-3-yl)-7-(8-ethyl-7-fluoro-3-hydroxynaphthalen-1-yl)-8-fluoro-2-(((2R,7aS)-2-fluorotetrahydro-1H-pyrrolizin-7a(5H)-yl)methoxy)quinazolin-6-ol], for which the IC50 in experiment [1] worked out at 1 nM; in experiment [3] (ASPC1, 2 h, 2 hours treatment) it was 22 nM. Moreover, the “Avg 2 h Coupled Exchange IC50” value in experiment [2] amounted to 2 nM.

With `Oc1cc(-c2ccc3c(N4C[C@H]5COC[C@@H](C4)N5)nc(OC[C@@]45CCCN4C[C@H](F)C5)nc3c2F)c2ccccc2c1` [Example 16, 4-(4-((1R,5S)-3-oxa-7,9-diazabicyclo[3.3. 1]nonan-7-yl)-8-fluoro-2-(((2R,7aS)-2-fluorotetrahydro-1H-pyrrolizin-7a(5H)-yl)methoxy)quinazolin-7-yl)naphthalen-2-ol], the concentration for half-maximal inhibition (IC50) in experiment [1] was found to be 20 nM; in experiment [3] (ASPC1, 2 h, 2 hours treatment) it was 4820 nM. The “Avg 2 h Coupled Exchange IC50” value in experiment [2] was found to be 7 nM.

As to `Cn1ncc2cccc(-c3ccc4c(N5C[C@H]6CC[C@@H](C5)N6)nc(OC[C@@]56CCCN5C[C@H](F)C6)nc4c3)c21` [Example 66, 4-((1R,5S)-3,8-diazabicyclo [3.2. 1]octan-3-yl)-2-(((2R,7aS)-2-fluorotetrahydro-1H-pyrrolizin-7a(5H)-yl)methoxy)-7-(1-methyl-1H-indazol-7-yl)quinazoline], the IC50 in experiment [1] amounted to 940 nM. The “Avg 2 h Coupled Exchange IC50” value in experiment [2] stood at 300 nM.

`Cc1ccc2cn[nH]c2c1-c1ccc2c(N3C[C@H]4CC[C@@H](C3)N4)nc(OC[C@@]34CCCN3C[C@H](F)C4)nc2c1` [Example 67, 4-((1R,5S)-3,8-diazabicyclo[3.2. 1]octan-3-yl)-2-(((2R,7aS)-2-fluorotetrahydro-1H-pyrrolizin-7a(5H)-yl)methoxy)-7-(6-methyl-1H-indazol-7-yl)quinazoline]: half-maximal inhibition in experiment [1] (IC50) required 512 nM. In addition, in experiment [2], the “Avg 2 h Coupled Exchange IC50” value came to 199 nM.

In turn, `Oc1ccc(Cl)c(-c2ccc3c(N4[C@@H]5CC[C@H]4CNC5)nc(OC[C@@]45CCCN4C[C@H](F)C5)nc3c2)c1F` [Example 35, 3-(4-((1R,5S)-3,8-diazabicyclo[3.2. 1]octan-8-yl)-2-(((2R,7aS)-2-fluorotetrahydro-1H-pyrrolizin-7a(5H)-yl)methoxy)quinazolin-7-yl)-4-chloro-2-fluorophenol] gave an IC50 in experiment [1] of 4700 nM. Further, the “Avg 2 h Coupled Exchange IC50” value in experiment [2] was found to be 1820 nM.

For `CCc1c(F)ccc2cc(O)cc(-c3ccc4c(N5C[C@@H]6CC[C@](F)(C5)N6)nc(OC[C@@]56CCCN5C[C@H](F)C6)nc4c3F)c12` [Example 178, 5-ethyl-6-fluoro-4-(8-fluoro-4-((1S,5S)-1-fluoro-3,8-diazabicyclo[3.2.1]octan-3-yl)-2-(((2R,7aS)-2-fluorotetrahydro-1H-pyrrolizin-7a(5H)-yl)methoxy)quinazolin-7-yl)naphthalen-2-ol], the IC50 in experiment [1] was 3 nM; in experiment [3] (ASPC1, 2 h, 2 hours treatment), 143 nM. In addition, the “Avg 2 h Coupled Exchange IC50” value in experiment [2] was determined as 5 nM.

Compound `N#Cc1c(OC[C@@]23CCCN2C[C@H](F)C3)nc2c(F)c(-c3cc(O)cc4ccccc34)c(Cl)cc2c1N1C[C@H]2CC[C@@H](C1)N2` [Example 61, 4-((1R,5S)-3,8-diazabicyclo[3.2. 1]octan-3-yl)-6-chloro-8-fluoro-2-(((2R,7aS)-2-fluorotetrahydro-1H-pyrrolizin-7a(5H)-yl)methoxy)-7-(3-hydroxynaphthalen-1-yl)quinoline-3-carbonitrile] came in with an IC50 in experiment [1] of 2560 nM. Further, the “Avg 2 h Coupled Exchange IC50” value in experiment [2] is 1670 nM.

The compound `CN1C[C@H](F)C[C@H]1COc1nc(N2[C@@H]3CC[C@H]2CNC3)c2cc(F)c(-c3cc(O)cc4ccccc34)c(O)c2n1` [Example 103, 4-((1R,5S)-3,8-diazabicyclo[3.2.1]octan-8-yl)-6-fluoro-2-(((2S,4R)-4-fluoro-1-methylpyrrolidin-2-yl)methoxy)-7-(3-hydroxynaphthalen-1-yl)quinazolin-8-ol] yielded an IC50 in experiment [1] of 1080 nM. Besides, in experiment [2], the “Avg 2 h Coupled Exchange IC50” value is 517 nM.

The compound `N#Cc1c(OC[C@@]23CCCN2C[C@H](F)C3)nc2c(F)c(-c3cc(O)cc4ccccc34)ccc2c1N1C[C@H]2CC[C@@H](C1)N2` [Example 62, 4-((1R,5S)-3,8-diazabicyclo[3.2. 1]octan-3-yl)-8-fluoro-2-(((2R,7aS)-2-fluorotetrahydro-1H-pyrrolizin-7a(5H)-yl)methoxy)-7-(3-hydroxynaphthalen-1-yl)quinoline-3-carbonitrile] yielded an IC50 in experiment [1] of 2650 nM. Moreover, the “Avg 2 h Coupled Exchange IC50” value in experiment [2] was 1170 nM.
